Counter-ions that a name gives are not always drawn.

`O=C(NC1CCC(c2cc(Nc3cccc(C(F)(F)F)c3)n[nH]2)C1)c1ccccn1` (centres unmarked) (as salt: HCl) [Example 31, Pyridine-2-carboxylic acid {3-[5-(3-trifluoromethyl-phenylamino)-2H-pyrazol-3-yl]-cyclopentyl}-amide]: the melting point is 180.1 °C.
Consider `O=C(NC1CCC(c2cc(Nc3cccc(C(F)(F)F)c3)n[nH]2)C1)C1CCC1` (centres unmarked) (as salt: HCl) [Example 33, Cyclobutanecarboxylic acid {3-[5-(3-trifluoromethyl-phenylamino)-2H-pyrazol-3-yl]-cyclopentyl}-amide], for which the melting point turned out to be 232.4 °C.
In turn, `CC(C)(C)C(=O)NC1CCC(c2cc(Nc3cccc(C(F)(F)F)c3)n[nH]2)C1` (centres unmarked) (as salt: HCl) [Example 34, 2,2-Dimethyl-N-{3-[5-(3-trifluoromethyl-phenylamino)-2H-pyrazol-3-yl]-cyclopentyl}-propionamide] displayed a melting point of 249.2 °C.
In the case of `COc1cccc(C(=O)N[C@H]2C[C@@H](c3cc(NC(=O)Cc4cccc5ccccc45)n[nH]3)C2)c1` (as salt: HCl) [Example 44, 3-Methoxy-N-{cis-3-[5-(2-naphthalen-1-yl-acetylamino)-2H-pyrazol-3-yl]-cyclobutyl}-benzamide] it was 124.8 °C; in that of `O=C(Cc1cccc2ccccc12)Nc1cc([C@H]2C[C@@H](NC(=O)c3cccc(C(F)(F)F)c3)C2)[nH]n1` (as salt: HCl) [Example 45, N-{cis-3-[5-(2-Naphthalen-1-yl-acetylamino)-2H-pyrazol-3-yl]-cyclobutyl}-3-trifluoromethyl-benzamide], 142.8 °C; in that of `CC(C)C(=O)N[C@H]1C[C@@H](c2cc(NC(=O)Cc3cccc4ccccc34)n[nH]2)C1` (as salt: HCl) [Example 46, N-{cis-3-[5-(2-Naphthalen-1-yl-acetylamino)-2H-pyrazol-3-yl]-cyclobutyl}-isobutyramide], 130.6 °C.
As to `O=C(Cc1cccc2ccccc12)Nc1cc([C@H]2C[C@@H](NC(=O)C3CC3c3ccccc3)C2)[nH]n1` (stereo partly drawn) (as salt: HCl) [Example 47, 2-Phenyl-cyclopropanecarboxylic acid {cis-3-[5-(2-naphthalen-1-yl-acetylamino)-2H-pyrazol-3-yl]-cyclobutyl}-amide], the melting point was 139.8 °C.
`CC(=O)N[C@H]1C[C@@H](c2cc(NC(=O)Cc3cccc4ccccc34)n[nH]2)C1` (as salt: HCl) [Example 48, N-[5-(cis-3-Acetylamino-cyclobutyl)-1H-pyrazol-3-yl]-2-naphthalen-1-yl-acetamide] displayed a melting point of 209.4 °C.
Turning to `O=C(Cc1cccc2ccccc12)Nc1cc([C@H]2C[C@@H](NC(=O)c3ccccc3)C2)[nH]n1` (as salt: HCl) [Example 49, N-{cis-3-[5-(2-Naphthalen-1-yl-acetylamino)-2H-pyrazol-3-yl]-cyclobutyl}-benzamide], the melting point is 194 °C.
The molecule `O=C(Cc1cccc2ccccc12)Nc1cc([C@H]2C[C@@H](NC(=O)CC3CC3)C2)[nH]n1` (as salt: HCl) [Example 50, 2-Cyclopropyl-N-{cis-3-[5-(2-naphthalen-1-yl-acetylamino)-2H-pyrazol-3-yl]-cyclobutyl}-acetamide] displayed a melting point of 93.2 °C.
Under `O=C(Cc1cccc2ccccc12)Nc1cc([C@H]2C[C@@H](NC(=O)c3ccc4ccccc4n3)C2)[nH]n1` (as salt: HCl) [Example 52, Quinoline-2-carboxylic acid {cis-3-[5-(2-naphthalen-1-yl-acetylamino)-2H-pyrazol-3-yl]-cyclobutyl}-amide] stands 200.3 °C; under `COc1ccc(C(=O)N[C@H]2C[C@@H](c3cc(NC(=O)Cc4cccc5ccccc45)n[nH]3)C2)cc1` (as salt: HCl) [Example 54, 4-Methoxy-N-{cis-3-[5-(2-naphthalen-1-yl-acetylamino)-2H-pyrazol-3-yl]-cyclobutyl}-benzamide], 175.6 °C.
Molecule `O=C(Cc1cccc2ccccc12)Nc1cc([C@H]2C[C@@H](NC(=O)c3cccc([N+](=O)[O-])c3)C2)[nH]n1` (as salt: HCl) [Example 55, N-{cis-3-[5-(2-Naphthalen-1-yl-acetylamino)-2H-pyrazol-3-yl]-cyclobutyl}-3-nitro-benzamide] came in with a melting point of 123.5 °C.
In the case of `O=C(Cc1cccc2ccccc12)Nc1cc([C@H]2C[C@@H](Oc3nc4ccccc4o3)C2)[nH]n1` (as salt: HCl) [Example 63, N-{5-[cis-3-(Benzooxazol-2-yloxy)-cyclobutyl]-1H-pyrazol-3-yl}-2-naphthalen-1-yl-acetamide] it was 142 °C.

The melting point is the temperature, or range, at which the solid turns liquid.

Source of the values: patent US20020103185A1, “Pyrazole derivatives” (priority 2000, published 2002).
